Reference: paper PMC4747340, “A new class of small molecule estrogen receptor-alpha antagonists that overcome anti-estrogen resistance” (Oncotarget, 2015)
Values joined by “and” are separate entries in the source; they are usually repeats but may differ in a detail not shown here. Equal values may be shown once. Read-outs that look alike come from different tables or passages of the source.

Tests used:
[1] = molecular target: T1, estrogen receptor-alpha (ER) (Homo sapiens, UniProt P03372); assay: ER activity, ERE-TK-Luc reporter, in MCF-7 cells; format: cell-based; design: MCF-7 cells in 24-well dishes were transfected overnight with the ERE-TK-Luc reporter plasmid; endogenous in cells; host or cells: MCF-7; conditions: for IC50: read-out: IC50 for inhibition of E2-stimulated ER activity
T1 sequence (P03372 1-595): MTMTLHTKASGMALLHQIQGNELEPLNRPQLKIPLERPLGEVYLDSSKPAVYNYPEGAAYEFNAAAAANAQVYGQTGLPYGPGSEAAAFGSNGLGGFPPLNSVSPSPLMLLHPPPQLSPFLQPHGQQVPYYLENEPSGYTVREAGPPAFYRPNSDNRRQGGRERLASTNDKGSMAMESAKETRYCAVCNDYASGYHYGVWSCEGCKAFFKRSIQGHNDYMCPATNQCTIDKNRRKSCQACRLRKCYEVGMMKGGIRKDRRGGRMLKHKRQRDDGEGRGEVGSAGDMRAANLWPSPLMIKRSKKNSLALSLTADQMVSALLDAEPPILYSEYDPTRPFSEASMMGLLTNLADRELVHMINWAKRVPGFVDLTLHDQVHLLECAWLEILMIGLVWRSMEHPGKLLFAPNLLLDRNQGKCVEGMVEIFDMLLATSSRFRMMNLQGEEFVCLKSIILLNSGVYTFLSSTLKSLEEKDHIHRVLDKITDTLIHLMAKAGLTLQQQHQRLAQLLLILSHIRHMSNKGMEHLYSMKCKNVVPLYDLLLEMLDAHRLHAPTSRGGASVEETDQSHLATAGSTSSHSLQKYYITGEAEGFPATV
Method: (§1) For MCF-7, luciferase activity is expressed as a fold-change relative to the no E2 control. For LCC9, luciferase activity is expressed relative to the control without the reporter present. Values plotted are means ± SEMs of four replicate wells. The data shown in each panel are representative of three independent experiments.
The cells were then treated ± 17β-estradiol (E2, 10 nM) and with the indicated compound (@ 1 μM or 20 μM) or vehicle only (DMSO) for 24 hr and assayed for luciferase activity. Luciferase activity is expressed as a fold-change relative to the no E2 control. The data shown are representative of three independent experiments.
(§2) Subconfluent cells in 24-well dishes were transfected overnight with 0.25 μg of each indicated vector plus the ERE-TK-Luc reporter in serum-free DMEM containing Lipofectamine2000 (Life Technologies, Washington, DC). Total transfected DNA was kept constant by addition of control vector. The cells were washed, incubated in phenol red-free DMEM containing 5% charcoal-stripped serum (obtained from the Tissue Culture Shared Resource) (0.2 ml/well) ± E2 (10 nM) ± the indicated compound for 24-hr, and harvested for luciferase assays. For each assay condition was tested in quadrupicate. To monitor the transfection efficiency, cultures were co-transfected with plasmid pRSV-β-gal (Promega, Madison, WI) to visualize transfected cells by X-gal staining.

cathepsin D [2] = assay: Western blotting of cathepsin D (E2/ER-regulated gene) in MCF-7 cells; format: cell-based, human; conditions: for E2-stimulated expression of cathepsin D: MCF-7, E2 10 nM, 24 hr; for cathepsin D levels, compound alone: MCF-7, no E2, 24 hr
Method: (§3) MCF-7 cells in DMEM plus 5% CSS were subjected to the indicated treatment(s) for 24-hr and then harvested for Western blotting to detect cathepsin D or actin (control for loading and transfer). B., D. LCC9 cells were treated with vehicle only (DMSO) or the indicated compound for 24-hr and then harvested for Western blotting for cathepsin D and actin. The data shown in each panel are representative of three independent experiments.
(§4) After the indicated cell treatment(s), the cells were harvested, and whole-cell lysates were prepared using RIPA buffer (Santa Cruz). Equal aliquots of whole-cell protein (either 100 μg unprecipitated whole-cell lysate or one half of the precipitated protein from 500-μg whole-cell lysate) were electrophoresed on 4-12% SDS-polyacrylamide gradient gels, transferred to nitrocellulose membranes (Millipore, Bedford, MA), and blotted using primary antibodies against BRCA1 (C-20, rabbit polyclonal, 1:200 dilution; Santa Cruz), cathepsin D (R-20, goat polyclonal, 1:300; Santa Cruz), ER (F10, mouse monoclonal, 1:500; Santa Cruz), or actin (goat polyclonal, sc-1615, 1:400; Santa Cruz). The membranes were blotted with the appropriate secondary antibodies (1:1000; Santa Cruz), and the blotted proteins were visualized using an electrochemiluminescence detection system (Amersham Biosciences), with colored markers (Bio-Rad Laboratories, Hercules, CA) as molecular size standards.

cathepsin D [3] = assay: Western blotting of cathepsin D in LCC9 cells; format: cell-based, human; conditions: LCC9, 24-hr exposure
Method: as §3
as §4, with “The membranes were blotted with the appropriate secondary antibodies (1:1000; Santa Cruz), and the blotted proteins were visualized using an electrochemiluminescence detection system (Amersham Biosciences), with colored markers (Bio-Rad Laboratories, Hercules, CA) as molecular size standards.” left out

LCC2 cells = assay: cell proliferation assay (cell counts days 1, 3, 5), LCC2; format: cell-based, human; conditions: DMEM + 5% charcoal-stripped serum
Method: (§5) Starting on day 1, cells were refed daily with fresh medium (DMEM plus 5% CSS) containing the indicated agent. In panel F, the cells were refed with medium also containing ER-siRNA or control-siRNA (100 nM) at the indicated times. Wells were counted on days 1, 3, and 5 to determine cell numbers. Values are means ± SEMs of triplicate wells. The data shown in each panel are representative of three independent experiments.
(§6) Assays were performed using as the growth medium phenol red-free DMEM containing 5% charcoal-stripped serum. Briefly, proliferating cells were harvested using trypsin, counted, inoculated into 12-well dishes at 1 × 10^4 cells per well on day 0 and allowed to attach and recover for 24 hr. The cells were then treated with the indicated agents for up to five days, with daily refeeding with fresh medium and agents. Triplicate wells were counted by Coulter Counter on days 1, 3, and 5. For experiments using siRNAs, cells were treated with the indicated siRNA (100 nM) starting on day -2, and fresh siRNA was added on days 0, 2, and 4.

[4] = molecular target: T1, estrogen receptor-alpha (ER); assay: constitutive ER activity, ERE-TK-Luc reporter, in anti-estrogen resistant LCC9 cells; format: cell-based; design: LCC9 cells in 24-well dishes were transfected overnight with the ERE-TK-Luc reporter plasmid; endogenous in cells; host or cells: LCC9; conditions: for IC50: LCC9, no E2, 24 hr, read-out: IC50 for inhibition of ER activity in LCC9
Method: as §1
The cells were then treated with the indicated concentrations of the six bioactive compounds or vehicle only (DMSO) for 24-hr and assayed for luciferase activity. Luciferase activity is expressed as a percentage of the DMSO control. Values are means ± SEMs of four replicate wells. The data shown in each panel are representative of three independent experiments.
The cells were then harvested for luciferase assays. Luciferase activity was expressed as a fold-change relative to the no reporter control. Values plotted are means ± SEMs of four replicate wells. The data shown are representative of three independent experiments.
as §2

LCC9 cells = assay: cell proliferation assay (cell counts days 1, 3, 5), LCC9; format: cell-based, human; conditions: for LCC9 cell proliferation, compound combined with Tam: compound plus Tam (1 μM) compared with compound alone
Method: as §5, §6

inhibition at 1 µM ([1]; MCF7, MCF-7, E2 10 nM, compound 1 μM, 24 hr, read-out: inhibition of E2-stimulated ER activity at 1 μM) [%] | effect on ER activity in LCC9 cells, single agent ([4]; LCC9, 24 hr, Tam 5 μM in b8) | SMILES | inhibition at 1 µM ([1]; MCF7, read-out: inhibition of E2-stimulated ER activity at 1 μM) [%] | IC50 ([1]; MCF-7, E2 10 nM, 24 hr) | E2-stimulated expression of cathepsin D (cathepsin D [2]) | cathepsin D levels, compound alone (cathepsin D [2]) | constitutive cathepsin D levels in LCC9 (cathepsin D [3]) | proliferation of Tamoxifen-resistant LCC2 cells (LCC2 cells) | IC50 [4] [nM] | LCC9 cell proliferation in ER-siRNA-treated cells (LCC9 cells; ER-siRNA 100 nM) | LCC9 cell proliferation, compound combined with Tam (LCC9 cells) | ER activity in LCC9 cells, compound combined with Tam ([4]; compound plus Tam compared with compound alone, 24 hr) | effect on LCC9 cell growth, single agent (LCC9 cells; DMEM + 5% charcoal-stripped serum, up to 5 days, 4631-P/1 at 1 μM)
– | – | O=C(CC(c1ccccc1)N1CCCCC1)c1ccccc1 (centres unmarked) [35446-L/1, 1,3-diphenyl-3-(piperidin-1-yl)propan-1-one] | ≥ 50 | ≤ 1000 nM and 800 nM | blocked E2-stimulated expression of cathepsin D | little or no effect | decreased | inhibited ER-dependent cell proliferation | ≤ 1000 | little effect on cell proliferation | greater inhibition of LCC9 proliferation than did 35466-L/1 alone | – | –
≥ 50 | inhibited ER activity in LCC9 cells | O=C(c1cc(Br)ccc1O)c1cc(Br)ccc1O [4631-P/1] | – | ≤ 1000 nM | blocked E2-stimulated expression of cathepsin D | little or no effect | decreased | inhibited ER-dependent cell proliferation | ≤ 1000 | – | greater inhibition of cell proliferation than 4631-P/1 alone | significantly lower ER activity than 4631-P/1 alone | inhibited LCC9 cell growth
